Assay results published in PubChem BioAssay (NCI).
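Five compound concentrations were applied to cells in 96-well plates for 48 hours; endpoints were derived by simple linear interpolation of the resulting dose-response curve. GI50 marks 50% less growth. TGI marks complete inhibition of growth.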

Test system: SK-MEL-5 melanoma
Test: inhibition of tumour cell growth, NCI panel, 48 h

Question: What does the source list for `CC[C@H](C)[C@H](NC(=O)[C@H]1CCCCN1C)C(=O)N(C)[C@H](CCc1nc(C(=O)N[C@@H](Cc2ccccc2)C[C@H](C)C(=O)OC)cs1)C(C)C`?
Answer: GI50: 0.0745 µM; TGI: 1.02 µM

Question: Which results are given for `O=C(C[C@@H](C(=O)NCc1cccc(C(F)(F)F)c1)N1C(=O)[C@@H](N2C(=O)OC[C@@H]2c2ccccc2)[C@H]1/C=C/c1ccccc1)NC1CCN(Cc2ccccc2)CC1`?
Answer: GI50: 3.47 µM; TGI: 12.5 µM

Question: How did the TGI turn out when `COc1cc([N+](=O)[O-])ccc1NC(=O)C(F)(F)F` was run?
Answer: The TGI was over 100 µM.

Question: With `COc1cc(-c2c(C#N)c(N)n3c(nc4ccccc43)c2C#N)cc(Br)c1OC` as the compound, how does the GI50 read?
Answer: The GI50 was 3.3 µM.

Question: And the TGI?
Answer: Its TGI is over 100 µM.

Question: `O=C(O)c1cc(N=Nc2ccc([As](=O)(O)O)cc2)ccc1O` was tested. Which TGI did it give?
Answer: Its TGI is over 100 µM.

Question: Which results are given for `Cn1cc(C2=C(c3cn(CCCN=C(N)N)c4ccccc34)C(=O)NC2=O)c2ccccc21`?
Answer: GI50: > 25 µM; TGI: > 25 µM

Question: With `NC(N)=NC(N)=Nc1cc2ccccc2c2ccccc12` as the compound, how does the GI50 read?
Answer: Its GI50 is 10.4 µM.

Question: What about the TGI of the same compound?
Answer: Its TGI is 22.8 µM.

Question: Which GI50 does the source give for `C[C@]12CC[C@@H]3c4ccc(Oc5nc(N6CC6)nc(N6CC6)n5)cc4CC[C@H]3[C@@H]1CCC2=O` here?
Answer: Its GI50 is 1.54 µM.

Question: And the TGI?
Answer: The TGI was 3.13 µM.

Question: For `COc1ccc2cc(C(=O)/C=C/c3cccc(OC)c3OC)ccc2c1`, which GI50 is on record?
Answer: The GI50 was 14.3 µM.

Question: And the TGI?
Answer: Its TGI is 27.4 µM.

Test system: OVCAR-3 ovarian
Test: inhibition of tumour cell growth, NCI panel, 48 h

Question: How did the GI50 turn out when `CC(C)(C)OC(=O)N(CCCN(CCn1c2c(c3ccccc3c1=O)C(=O)c1ccccc1-2)C(=O)OC(C)(C)C)CCn1c2c(c3ccccc3c1=O)C(=O)c1ccccc1-2` was run?
Answer: The GI50 was 21.2 µM.

Question: What about the TGI of the same compound?
Answer: The TGI was over 50 µM.

Question: With `CC[C@H](C)[C@H](NC(=O)[C@H]1CCCCN1C)C(=O)N(C)[C@H](CCc1nc(C(=O)N[C@@H](Cc2ccccc2)C[C@H](C)C(=O)OC)cs1)C(C)C` as the compound, how does the GI50 read?
Answer: Its GI50 is 0.0867 µM.

Question: `O=C(C[C@@H](C(=O)NCc1cccc(C(F)(F)F)c1)N1C(=O)[C@@H](N2C(=O)OC[C@@H]2c2ccccc2)[C@H]1/C=C/c1ccccc1)NC1CCN(Cc2ccccc2)CC1` was tested. Which GI50 did it give?
Answer: The GI50 was 10.4 µM.

Question: And the TGI?
Answer: The TGI was 25.1 µM.

Question: For `COc1cc([N+](=O)[O-])ccc1NC(=O)C(F)(F)F`, which TGI is on record?
Answer: The TGI was over 100 µM.

Question: `O=C(O)c1cc(N=Nc2ccc([As](=O)(O)O)cc2)ccc1O` was tested. Which TGI did it give?
Answer: Its TGI is over 100 µM.

Question: How did the GI50 turn out when `Cn1cc(C2=C(c3cn(CCCN=C(N)N)c4ccccc34)C(=O)NC2=O)c2ccccc21` was run?
Answer: The GI50 was over 25 µM.

Question: And the TGI?
Answer: Its TGI is over 25 µM.

Question: For `NC(N)=NC(N)=Nc1cc2ccccc2c2ccccc12`, which GI50 is on record?
Answer: The GI50 was 12.3 µM.

Question: What about the TGI of the same compound?
Answer: The TGI was 26.6 µM.

Question: With `C[C@]12CC[C@@H]3c4ccc(Oc5nc(N6CC6)nc(N6CC6)n5)cc4CC[C@H]3[C@@H]1CCC2=O` as the compound, how does the GI50 read?
Answer: Its GI50 is 3.86 µM.

Question: What about the TGI of the same compound?
Answer: Its TGI is 15.3 µM.

Question: Which GI50 does the source give for `COc1ccc2cc(C(=O)/C=C/c3cccc(OC)c3OC)ccc2c1` here?
Answer: The GI50 was 19 µM.

Question: What about the TGI of the same compound?
Answer: The TGI was 35.5 µM.

Question: For `CCCCC/C=C/C/C=C/CCCCCCCC1=NC(C)(C)CN1C(C)C`, which GI50 is on record?
Answer: The GI50 was 1.49 µM.

Question: What about the TGI of the same compound?
Answer: The TGI was 2.81 µM.

Test system: NCI-H226 lung
Test: inhibition of tumour cell growth, NCI panel, 48 h

Question: With `CC(C)(C)OC(=O)N(CCCN(CCn1c2c(c3ccccc3c1=O)C(=O)c1ccccc1-2)C(=O)OC(C)(C)C)CCn1c2c(c3ccccc3c1=O)C(=O)c1ccccc1-2` as the compound, how does the GI50 read?
Answer: The GI50 was over 50 µM.

Question: And the TGI?
Answer: Its TGI is over 50 µM.

Question: Which results are given for `CC[C@H](C)[C@H](NC(=O)[C@H]1CCCCN1C)C(=O)N(C)[C@H](CCc1nc(C(=O)N[C@@H](Cc2ccccc2)C[C@H](C)C(=O)OC)cs1)C(C)C`?
Answer: GI50: 1.07 µM; TGI: > 12.4 µM

Question: Which results are given for `O=C(C[C@@H](C(=O)NCc1cccc(C(F)(F)F)c1)N1C(=O)[C@@H](N2C(=O)OC[C@@H]2c2ccccc2)[C@H]1/C=C/c1ccccc1)NC1CCN(Cc2ccccc2)CC1`?
Answer: GI50: 48.2 µM; TGI: > 100 µM

Question: How did the TGI turn out when `COc1cc([N+](=O)[O-])ccc1NC(=O)C(F)(F)F` was run?
Answer: The TGI was over 100 µM.

Question: With `COc1cc(-c2c(C#N)c(N)n3c(nc4ccccc43)c2C#N)cc(Br)c1OC` as the compound, how does the GI50 read?
Answer: The GI50 was over 100 µM.

Question: And the TGI?
Answer: Its TGI is over 100 µM.

Question: `O=C(O)c1cc(N=Nc2ccc([As](=O)(O)O)cc2)ccc1O` was tested. Which TGI did it give?
Answer: Its TGI is over 100 µM.

Question: For `Cn1cc(C2=C(c3cn(CCCN=C(N)N)c4ccccc34)C(=O)NC2=O)c2ccccc21`, which GI50 is on record?
Answer: The GI50 was over 25 µM.

Question: And the TGI?
Answer: The TGI was over 25 µM.

Question: Which results are given for `NC(N)=NC(N)=Nc1cc2ccccc2c2ccccc12`?
Answer: GI50: 10.5 µM; TGI: 25.5 µM

Question: What does the source list for `C[C@]12CC[C@@H]3c4ccc(Oc5nc(N6CC6)nc(N6CC6)n5)cc4CC[C@H]3[C@@H]1CCC2=O`?
Answer: GI50: 3.23 µM; TGI: 30.8 µM

Test system: IGROV1 ovarian
Test: inhibition of tumour cell growth, NCI panel, 48 h

Question: What does the source list for `CC(C)(C)OC(=O)N(CCCN(CCn1c2c(c3ccccc3c1=O)C(=O)c1ccccc1-2)C(=O)OC(C)(C)C)CCn1c2c(c3ccccc3c1=O)C(=O)c1ccccc1-2`?
Answer: GI50: 34.5 µM; TGI: > 50 µM

Question: How did the GI50 turn out when `CC[C@H](C)[C@H](NC(=O)[C@H]1CCCCN1C)C(=O)N(C)[C@H](CCc1nc(C(=O)N[C@@H](Cc2ccccc2)C[C@H](C)C(=O)OC)cs1)C(C)C` was run?
Answer: Its GI50 is 0.316 µM.

Question: What about the TGI of the same compound?
Answer: Its TGI is over 25 µM.

Question: Which results are given for `O=C(C[C@@H](C(=O)NCc1cccc(C(F)(F)F)c1)N1C(=O)[C@@H](N2C(=O)OC[C@@H]2c2ccccc2)[C@H]1/C=C/c1ccccc1)NC1CCN(Cc2ccccc2)CC1`?
Answer: GI50: 13.3 µM; TGI: 32.4 µM

Question: Which TGI does the source give for `COc1cc([N+](=O)[O-])ccc1NC(=O)C(F)(F)F` here?
Answer: The TGI was over 100 µM.

Question: With `COc1cc(-c2c(C#N)c(N)n3c(nc4ccccc43)c2C#N)cc(Br)c1OC` as the compound, how does the GI50 read?
Answer: Its GI50 is 97.5 µM.

Question: What about the TGI of the same compound?
Answer: The TGI was over 100 µM.

Question: For `O=C(O)c1cc(N=Nc2ccc([As](=O)(O)O)cc2)ccc1O`, which TGI is on record?
Answer: The TGI was over 100 µM.

Question: For `Cn1cc(C2=C(c3cn(CCCN=C(N)N)c4ccccc34)C(=O)NC2=O)c2ccccc21`, which GI50 is on record?
Answer: The GI50 was 14.8 µM.

Question: What about the TGI of the same compound?
Answer: Its TGI is over 25 µM.

Question: What does the source list for `NC(N)=NC(N)=Nc1cc2ccccc2c2ccccc12`?
Answer: GI50: 4.04 µM; TGI: 19.1 µM

Question: With `C[C@]12CC[C@@H]3c4ccc(Oc5nc(N6CC6)nc(N6CC6)n5)cc4CC[C@H]3[C@@H]1CCC2=O` as the compound, how does the GI50 read?
Answer: The GI50 was 3.3 µM.

Question: What about the TGI of the same compound?
Answer: The TGI was 22.2 µM.

Question: With `CCCCn1c(-c2ccc(C(=O)O/N=C(\N)c3ccc(OC)cc3)cc2)nc(-c2ccccc2)c1-c1ccccc1` as the compound, how does the GI50 read?
Answer: Its GI50 is 0.334 µM.

Question: What about the TGI of the same compound?
Answer: Its TGI is 1.16 µM.

Question: `CCCCC/C=C/C/C=C/CCCCCCCC1=NC(C)(C)CN1C(C)C` was tested. Which GI50 did it give?
Answer: Its GI50 is 1.23 µM.

Question: What about the TGI of the same compound?
Answer: The TGI was 2.47 µM.

Test system: NCI-H460 lung
Test: inhibition of tumour cell growth, NCI panel, 48 h

Question: With `CC(C)(C)OC(=O)N(CCCN(CCn1c2c(c3ccccc3c1=O)C(=O)c1ccccc1-2)C(=O)OC(C)(C)C)CCn1c2c(c3ccccc3c1=O)C(=O)c1ccccc1-2` as the compound, how does the GI50 read?
Answer: The GI50 was 49.7 µM.

Question: What about the TGI of the same compound?
Answer: Its TGI is over 50 µM.

Question: With `CC[C@H](C)[C@H](NC(=O)[C@H]1CCCCN1C)C(=O)N(C)[C@H](CCc1nc(C(=O)N[C@@H](Cc2ccccc2)C[C@H](C)C(=O)OC)cs1)C(C)C` as the compound, how does the GI50 read?
Answer: Its GI50 is 0.395 µM.

Question: And the TGI?
Answer: The TGI was over 10.3 µM.

Question: Which results are given for `O=C(C[C@@H](C(=O)NCc1cccc(C(F)(F)F)c1)N1C(=O)[C@@H](N2C(=O)OC[C@@H]2c2ccccc2)[C@H]1/C=C/c1ccccc1)NC1CCN(Cc2ccccc2)CC1`?
Answer: GI50: 6.58 µM; TGI: 21.8 µM

Question: Which TGI does the source give for `COc1cc([N+](=O)[O-])ccc1NC(=O)C(F)(F)F` here?
Answer: Its TGI is over 100 µM.

Question: For `O=C(O)c1cc(N=Nc2ccc([As](=O)(O)O)cc2)ccc1O`, which TGI is on record?
Answer: Its TGI is over 100 µM.

Question: Which GI50 does the source give for `Cn1cc(C2=C(c3cn(CCCN=C(N)N)c4ccccc34)C(=O)NC2=O)c2ccccc21` here?
Answer: Its GI50 is over 25 µM.

Question: And the TGI?
Answer: The TGI was over 25 µM.

Question: `NC(N)=NC(N)=Nc1cc2ccccc2c2ccccc12` was tested. Which GI50 did it give?
Answer: Its GI50 is 5.13 µM.

Question: What about the TGI of the same compound?
Answer: Its TGI is 19.4 µM.

Question: For `C[C@]12CC[C@@H]3c4ccc(Oc5nc(N6CC6)nc(N6CC6)n5)cc4CC[C@H]3[C@@H]1CCC2=O`, which GI50 is on record?
Answer: The GI50 was 0.517 µM.

Question: What about the TGI of the same compound?
Answer: Its TGI is 2.79 µM.

Question: `COc1ccc2cc(C(=O)/C=C/c3cccc(OC)c3OC)ccc2c1` was tested. Which GI50 did it give?
Answer: Its GI50 is 18.3 µM.

Question: What about the TGI of the same compound?
Answer: Its TGI is 37.5 µM.

Question: `CCCCn1c(-c2ccc(C(=O)O/N=C(\N)c3ccc(OC)cc3)cc2)nc(-c2ccccc2)c1-c1ccccc1` was tested. Which GI50 did it give?
Answer: Its GI50 is 1.84 µM.

Question: And the TGI?
Answer: Its TGI is 3.87 µM.

Question: How did the GI50 turn out when `CCCCC/C=C/C/C=C/CCCCCCCC1=NC(C)(C)CN1C(C)C` was run?
Answer: The GI50 was 1.82 µM.

Question: And the TGI?
Answer: Its TGI is 3.34 µM.
